In US4379158A, “Antisecretory imidazole amidine compounds, composition and method of use” (Yamanouchi Pharmaceutical Co., Ltd., priority 1977, dated 1983):
Where a name gives a salt, the structure may show the parent alone.

Legend:
[1] = biological target: T1, Histamine H2-receptor (Cavia porcellus, UniProt P47747); experiment: Histamine H2-receptor blocking activity of test compounds in isolated guinea-pig atria (histamine-induced tachycardia); type: cell-based, guinea-pigs; details: 5×10^-6 M histamine, Krebs-Henseleit solution, 36° C., mean ± S.E. from 5 experiments, read-out: ED50 (dose producing a 50% blockade of chronotropic action of histamine)
T1 construct: Atrial preparations isolated from guinea-pigs; from tissue; host or cells: isolated guinea-pig atria
Description: Atrial preparations isolated from guinea-pigs were suspended in Krebs-Henseleit solution at 36° C. (Mitchell, I. et al. Europ. J. Pharmacol., 34, 95, 1975). The dose producing a 50% blockade of chronotropic action of 5×10^-6 M histamine was obtained from the dose-respose curve in which the inhibition percentage was plotted semilogarithmically against dose.

[2] = tested on: gastric acid secretion; experiment: Effect of test compounds on gastric acid secretion in pylorus-ligated rats; type: in vivo; details: 50 mg/kg intraduodenal, immediately after pylorus ligation, 7 rats, mean ± S.E., *p < 0.01; for Gastric contents, Volume: control 3.2 ± 0.3; for Gastric contents, Acid output: control 380 ± 40.1
Description: Rats weighing about 200 g. were deprived of food for 24 hours and their pylorus was ligated after an abdominal incision under ether anesthesia (Shay, H. et al.: Gastroenterol., 5, 43, 1945). Test compounds were intraduodenally given immediately after the pylorus ligation. The animals were sacrificed 4 hours after drug administration and gastric contents were collected. The gastric juice was titrated with 0.05 N NaOH to pH 7.0 for measurement of acidity.

[3] = tested on: H2-receptor; details: Ash and Schild 1966; Black et al. 1972; cited from earlier work

T1 sequence (P47747 whole entry): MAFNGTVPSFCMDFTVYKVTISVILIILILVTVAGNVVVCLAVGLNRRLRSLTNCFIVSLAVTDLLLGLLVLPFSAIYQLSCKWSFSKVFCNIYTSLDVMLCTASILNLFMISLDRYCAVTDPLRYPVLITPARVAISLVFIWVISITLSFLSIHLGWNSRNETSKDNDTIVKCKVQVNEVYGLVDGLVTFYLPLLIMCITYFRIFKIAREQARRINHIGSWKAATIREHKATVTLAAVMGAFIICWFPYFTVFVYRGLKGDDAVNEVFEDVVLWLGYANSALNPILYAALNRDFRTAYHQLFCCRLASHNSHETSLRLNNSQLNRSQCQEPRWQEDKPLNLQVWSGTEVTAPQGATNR

SMILES | IC50 [1] [µM] | Gastric contents, Volume [2] [ml/4 hours/rat] | Gastric contents, Acid output [2] [μEq/4 hours/rat] | inhibition/antagonism of the effects of histamine on gastric acid secretion and heart rate in isolated atrium (in words) [3]
C#CCN=C(N)CCSCc1nc[nH]c1C [Example 40, N2-Propynyl-3-[(5-methylimidazol-4-yl)methylthio]-propionamidine dihydrochloride] | 2.3 |  |  | 
CN(C)Cc1ccc(CSCCC(N)=NC#N)o1 [Example 41, NCyano-3-[5-(dimethylaminomethyl)furfurylthio]-propionamidine] | 2.1 | 1.5 ± 0.2 | 97 ± 17.2 | 
C#CCN=C(N)CCSCc1ccc(CN(C)C)o1 [Example 42, 3-[5-(Dimethylaminomethyl)furfurylthio]-N2-propynylpropionamidine dihydrochloride] |  | 1.7 ± 0.3 | 137 ± 31.5 | 
Cc1[nH]cnc1CSCCC(N)=NC(N)=O [Example 44, N-carbamoyl-3-(4-methyl-5-imidazolylmethylthio)-propionamidine] | 0.9 | 1.4 ± 0.2 | 79 ± 9.0 | 
COc1ccc(CN(CCN(C)C)c2ccccn2)cc1 [mepyramine] |  |  |  | not inhibited
C/N=C(\S)NCCSCc1[nH]cnc1C [metiamide] |  |  |  | antagonized
